Patent US5281626A, “Benzenesulfonamide derivatives” (Eisai Co., Ltd., priority 1990, dated 1994)

How the values were obtained:
[1] = tested on: phospholipase A2 (PLA2) contained in the supernatant fraction of rabbit heart; experiment: Inhibitory activity against phospholipase A2 (PLA2) contained in the supernatant fraction of rabbit heart; format: biochemical; settings: EGTA added, 37° C., 5 minutes
Description: (§1) A. Inhibitory activity against phospholipase A2 (PLA2) contained in the membrane fraction of rabbit heart or the supernatant fraction thereof (method) An NZW male rabbit was anesthetized by the intravenous administration of pentobarbital sodium to take out its heart. This heart was washed with ice cooled physiological saline to recover a ventricle, followed by the addition of ice-cooled 0.25M sucrose/20 mM tris hydrochloride buffer (pH: 8.0) in an amount of 5 ml per g of the ventricle. The obtained mixture was mashed with a homogenizer in ice water for 30 minutes and centrifuged at 1,000 g for 10 min. The supernatant was further centrifuged at 105,000 g for 60 min. The centrifugation was conducted at 0° to 4° C. The obtained supernatant was used as such as the supernatant fraction for examination. The precipitate was suspended in the same buffer as that described above and used as the membrane fraction for examination. The protein concentrations of these fractions were each adjusted to 5 mg/ml as determined by Lowry method. […] The test tubes of the membrane fraction were kept at 37° C. for 30 minutes for incubation, while those of the supernatant fraction were kept at 37° C. for 5 minutes for incubation. Each incubation was stopped by the addition of 1 ml of Dole reagent. […] The amount of ^14 C was determined with a liquid scintillation counter. Mepacrine was selected as a comparative compound. (Results)

[2] = tested on: phospholipase A2 (PLA2) contained in the membrane fraction of rabbit heart; experiment: Inhibitory activity against phospholipase A2 (PLA2) contained in the membrane fraction of rabbit heart; format: biochemical; settings: CaCl2 added, 37° C., 30 minutes
Description: as §1

[3] = tested on: male SD rats; experiment: Toxicity test, intravenous; format: in vivo; settings: 50 mg/kg intravenously, three male SD rats per group, observed for 3 hours
Description: A small amount of 1N HCl was added to each of the compounds of Examples 4, 6, 7, 8 and 15 to form aqueous solutions. These solutions were each intravenously administered to the groups of three male SD rats of 7 weeks of age in a dose of 50 mg/kg. […] No rat died.

[4] = tested on: cardiac infarct size of rat; experiment: Influence on the cardiac infarct size of rat (ligation of the coronary artery); format: in vivo; settings: 1 mg/kg through the tail vein 15 minutes prior to ligation; 3 hours of ligation
Description: B. Influence on the cardiac infarct size of rat
Sixty-one male rats (weight : 220 to 300 g) were made to get myocardial ischemia by the ligation of the coronary artery. After 3 hours from the ligation, hearts were taken out of the rats and cut into round slices to obtain preparations. These preparations were stained with […]. The area unstained therewith was regarded as a cardiac infarction nidus and the area ratio of the nidus to the left ventricle was determined by the image analysis and regarded as the cardiac infarct size.
The cardiac infarct size was reduced as compared with that of the control rat by 21% or 20% by the administration of the compound of Example 4 or 6 through the tail vein in a dose of 1 mg/kg before 15 minutes prior to the ligation of the coronary artery.

| SMILES | PLA2 -inhibitory activity IC30, supernatant fraction [1] [µM] | PLA2 -inhibitory activity IC30, membrane fraction [2] [µM] | mortality [3] | reduction of cardiac infarct size as compared with control rat [4] [%] |
| --- | --- | --- | --- | --- |
| CN(C(=O)/C=C/c1ccc(S(C)(=O)=O)cc1)c1ccc(S(=O)(=O)NC2CCCCN(Cc3ccccn3)C2)cc1 (racemic) [Example 8, (±)N-[1-(2-pyridylmethyl)-3-hexamethyleneimino]-4 {N methyl-N-[(E)-3-(4-methylsulfonylphenyl)-2-propenoyl]amino}benzenesulfonamide] | > 100 | 0.029 | No rat died |  |
| CN(C(=O)/C=C/c1ccc(S(C)(=O)=O)cc1)c1ccc(S(=O)(=O)NC2CCN(Cc3ccccc3)CC2)cc1 [Example 4, N-(1-benzyl-4-piperidyl)-4-(N-methyl [(E)-3-(4-methylsulfonylphenyl)-2-propenoyl]amino}benzenesulfonamide] | > 100 | 0.032 | No rat died | 21 |
| Cc1cccc(CCN(C)S(=O)(=O)c2ccc(N(C)C(=O)/C=C/c3ccc(S(C)(=O)=O)cc3)cc2)n1 [Example 6, N-methyl N-[2-(6-methyl-2-pyridyl)ethyl]-4-{N-methyl-N-[(E)-3-(4-methylsulfonylphenyl)-2-propenoyl]amino}benzenesulfonamide] | > 100 | 0.056 | No rat died | 20 |
| CN(C(=O)/C=C/c1ccc(S(C)(=O)=O)cc1)c1ccc(S(=O)(=O)N2CCCN(CCc3ccccc3)CC2)cc1 [Example 7, (E)-N-methyl-N-{4-[4-(2 phenylethyl)-homopiperazinyl]sulfonylphenyl}-3-(4-methylsulfonylphenyl)-2-propenamide] |  |  | No rat died |  |
| Cc1cccc(CCNS(=O)(=O)c2ccc(N(C)C(=O)/C=C/c3ccc(S(C)(=O)=O)cc3)cc2)n1 [Example 15, N-[2-(6-methyl-2-pyridyl)ethyl]-4-{N-methyl-N-[(E)-3-(4-methylsulfonylphenyl)-2-propenoyl]amino}benzenesulfonamide] | 61 | 0.081 | No rat died |  |
| CN(C(=O)/C=C/c1ccc(O)cc1)c1ccc(S(=O)(=O)NC2CCCCCC2)cc1 [Example 86, N-cycloheptyl-4-{N-methyl-N-[(E)-3-(4-hydroxyphenyl)-2-propenoyl]amino}benzenesulfonamide] | 46 | 0.62 |  |  |
| CCN(CC)CCCC(C)Nc1c2ccc(Cl)cc2nc2ccc(OC)cc12 (stereo not shown) [mepacrine, reference compound] | > 100 | > 100 |  |  |
